This passage reports Ki results from patent publication US8686002B2, “Heterocyclic compounds and their use as binding partners for 5-HT5 receptors” (AbbVie Deutschland GmbH & Co. KG, priority 2005, dated 2014).

Structures can show the parent of a compound that is named as a salt.

Sequence of 5-HT5A (P47898 whole entry): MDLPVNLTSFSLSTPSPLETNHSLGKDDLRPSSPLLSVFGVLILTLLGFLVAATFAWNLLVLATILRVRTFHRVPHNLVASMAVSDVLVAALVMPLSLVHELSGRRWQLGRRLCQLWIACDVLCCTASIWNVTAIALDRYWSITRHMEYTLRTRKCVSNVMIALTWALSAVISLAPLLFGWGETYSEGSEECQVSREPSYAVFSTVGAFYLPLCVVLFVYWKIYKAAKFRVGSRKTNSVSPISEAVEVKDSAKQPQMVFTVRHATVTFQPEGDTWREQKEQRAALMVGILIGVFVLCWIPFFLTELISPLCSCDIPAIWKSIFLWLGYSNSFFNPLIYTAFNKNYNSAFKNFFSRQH

For this test, the target named is 5-HT5A (Homo sapiens, UniProt P47898). The test is described as follows: Affinity of selected compounds for 5-HT5A (Ki). The class given is binding. The protocol:
In both assays, different concentrations of the test substances are used and the Ki and IC50 values are determined.
Compound `CN(C)CCOc1cccc(F)c1Cc1cc2ccccc2nc1N` [Example 60, 3-{2-[2-(Dimethylamino)ethoxy]-6-fluorobenzyl}quinolin-2-amine bishydrochloride] displayed a Ki of less than 300 nM.

As for `Nc1nc2ccccc2cc1Cc1ccccc1OC(F)F` [Example 61, 3-[2-(difluoromethoxy)benzyl]quinolin-2-amine], the Ki is less than 300 nM. Then `CCOc1ccccc1Cc1cc2cc(N3CCOCC3)ccc2nc1N` [Example 62, 3-(2-Ethoxygenzyl)-6-morpholin-4-ylquinolin-2-amine monofumarate], with less than 300 nM; and `COc1cccc(OC)c1CN1Cc2ccccc2N=C1N` [Example 63, 3-(2,6-Dimethoxybenzyl)-3,4-dihydroquinazolin-2-amine acetate], with less than 300 nM. Take `COc1ccccc1CN1Cc2ccccc2N=C1N` [Example 64, 3-(2-Methoxybenzyl)-3,4-dihydroquinazolin-2-amine hydrochloride]: the Ki is less than 300 nM.

For the compound `COc1ccccc1CN1Cc2ccc(Cl)cc2N=C1N` [Example 65, 7-Chloro-3-(2-methoxybenzyl)-3,4-dihydroquinazolin-2-amine], the Ki is less than 300 nM. Then `COc1ccccc1CN1Cc2ccc(C(F)(F)F)cc2N=C1N` [Example 66, 3-(2-Methoxybenzyl)-7-(trifluoromethyl)-3,4-dihydroquinazolin-2-amine hydrochloride], with less than 300 nM; and `COc1cc(Cl)ccc1CN1Cc2ccccc2N=C1N` [Example 67, 3-(4-Chloro-2-methoxybenzyl)-3,4-dihydroquinazolin-2-amine hydrochloride], with less than 300 nM; and `NC1=Nc2ccccc2CN1Cc1cccc2c1OCC2` [Example 68, 3-(2,3-Dihydro-1-benzofuran-7-ylmethyl)-3,4-dihydroquinazolin-2-amine hydrochloride], with less than 300 nM. Then `NC1=Nc2ccccc2CN1Cc1ccccc1OC(F)(F)F` [Example 69, 3-[2-(Trifluoromethoxy)benzyl]-3,4-dihydroquinazolin-2-amine], with less than 300 nM.

As for `COc1ccc(CN2Cc3ccccc3N=C2N)c(OC)c1` [Example 70, 3-(2,4-Dimethoxybenzyl)-3,4-dihydroquinazolin-2-amine], the inhibition constant Ki was less than 10000 nM. Then `COc1cccc(CN2Cc3ccccc3N=C2N)c1OC` [Example 71, 3-(2,3-Dimethoxybenzyl)-3,4-dihydroquinazolin-2-amine hydrochloride], with less than 10000 nM; and `NC1=Nc2ccccc2CN1Cc1ccccc1O` [Example 72, 2-[(2-Aminoquinazolin-3(4H)-yl)methyl]phenol], with less than 10000 nM.

In turn, `COc1ccccc1CN1Cc2ccccc2N=C1NO` [Example 73, 2-(Hydroxyamino)-3-(2-methoxybenzyl)-3,4-dihydroquinazoline] came in with a Ki of less than 10000 nM. In the case of `COc1ccccc1CN1Cc2ccccc2N=C1NC1Cc2ccccc2C1` [Example 74, N-(2,3-Dihydro-1H-inden-2-yl)-3-(2-methoxybenzyl)-3,4-dihydroquinazolin-2-amine acetate] it was less than 300 nM. As for `COc1ccccc1CN1Cc2ccccc2N=C1NCc1cccnc1` [Example 75, 3-(2-Methoxybenzyl)-2-[(pyridin-3-ylmethyl)amino]-3,4-dihydroquinazoline acetate], the Ki is less than 10000 nM. Then `CCCCNC1=Nc2ccccc2CN1Cc1ccccc1OC` [Example 76, 2-(Butylamino)-3-(2-methoxybenzyl)-3,4-dihydroquinazoline hydrochloride], with less than 10000 nM; and `COc1ccccc1CN1Cc2ccccc2N=C1NCC(C)C` [Example 77, 2-(Isobutylamino)-3-(2-methoxybenzyl)-3,4-dihydroquinazoline acetate], with less than 10000 nM. The compound `COc1ccccc1CN1Cc2ccccc2N=C1N1CCNCC1` [Example 78, 3-(2-Methoxybenzyl)-2-piperazin-1-yl-3,4-dihydroquinazoline hydrochloride] gave a Ki of less than 10000 nM. The compound `COc1ccccc1CN1Cc2ccccc2N=C1N1CCN(C)CC1` [Example 79, 3-(2-Methoxybenzyl)-2-(4-methylpiperazin-1-yl)-3,4-dihydroquinazoline fumarate] yielded a Ki of less than 10000 nM.

For `COc1ccccc1CN1Cc2ccccc2N=C1N1CCN(Cc2ccccc2)CC1` [Example 80, 2-(4-Benzylpiperazin-1-yl)-3-(2-methoxybenzyl)-3,4-dihydroquinazoline fumarate], the Ki is less than 10000 nM. In the case of `COc1cccc(OC)c1CN1Cc2ccc(Br)cc2N=C1N` [Example 81, 7-Bromo-3-(2,6-dimethoxybenzyl)-3,4-dihydroquinazolin-2-amine] it was less than 300 nM; in that of `COc1cccc(OC)c1CN1Cc2ccc(-c3ccccc3)cc2N=C1N` [Example 82, 3-(2,6-Dimethoxybenzyl)-7-phenyl-3,4-dihyroquinazoli-2-aminium acetate], less than 300 nM. Consider `COc1ccc(-c2ccc3c(c2)N=C(N)N(Cc2c(OC)cccc2OC)C3)cc1` [Example 83, 3-(2,6-Dimethoxybenzyl)-7-(4-methoxyphenyl)-3,4-dihydroquinazolin-2-aminium acetate], for which the Ki was less than 10000 nM. `COc1cccc(OC)c1CN1Cc2ccc(C)cc2N=C1N` [Example 84, 3-(2,6-Dimethoxybenzyl)-7-methyl-3,4-dihydroquinazolin-2-aminium acetate]: the inhibitory constant (Ki) was less than 300 nM. In the case of `COc1cccc(OC)c1CN1Cc2ccc(-c3cccnc3)cc2N=C1N` [Example 85, 3-(2,6-Dimethoxybenzyl)-7-pyridin-3-yl-3,4-dihydroquinazolin-2-aminium acetate] it was less than 300 nM; in that of `COc1cccc(OC)c1CN1Cc2ccc(-c3cccs3)cc2N=C1N` [Example 86, 3-(2,6-Dimethoxybenzyl)-7-(2-thienyl)-3,4-dihydroquinazolin-2-aminium acetate], less than 300 nM. Take `COc1cccc(OC)c1CN1Cc2ccc(-c3ccc(OC(F)(F)F)cc3)cc2N=C1N` [Example 87, 3-(2,6-Dimethoxybenzyl)-7-[4-trifluoromethoxy)phenyl]-3,4-dihydroquinazoline-2-aminium acetate]: the Ki is less than 300 nM. Then `COc1cccc(OC)c1CN1Cc2ccc(Nc3ccccc3)cc2N=C1N` [Example 88, 7-Anilino-3-(2,6-dimethoxybenzyl)-3,4-dihydroquinazolin-2-aminium acetate], with less than 300 nM. Then `COc1cccc(OC)c1CN1Cc2cc(Cl)ccc2N=C1N` [Example 89, 6-Chloro-3-(2,6-dimethoxybenzyl)-3,4-dihydroquinazolin-2-amine], with less than 300 nM. `COc1cccc(OC)c1CN1Cc2ccc(Cl)cc2N=C1N` [Example 90, 7-Chloro-3-(2,6-dimethoxybenzyl)-3,4-dihydroquinazolin-2-amine] had a Ki of less than 300 nM. In the case of `COc1ccccc1CN1Cc2ccc([N+](=O)[O-])cc2N=C1N` [Example 91, 3-(2-Methoxybenzyl)-7-nitro-3,4-dihydroquinazolin-2-amine] it was less than 300 nM; in that of `COc1cccc(OC)c1CN1Cc2ccccc2N=C1NC1CCCCCC1` [Example 92, N-Cycloheptyl-3-(2,6-dimethoxybenzyl)-3,4-dihydroquinazolin-2-amine hydrochloride], less than 300 nM; in that of `COc1cccc(OC)c1CN1Cc2ccccc2N=C1NCc1cccc2ccccc12` [Example 93, 3-(2,6-Dimethoxybenzyl)-N-(1-naphthylmethyl)-3,4-dihydroquinazolin-2-amine hydrochloride], less than 10000 nM. As for `COc1cccc(OC)c1CN1Cc2ccccc2N=C1NCc1ccccn1` [Example 94, [3-(2,6-Dimethoxybenzyl)-3,4-dihydroquinazolin-2-yl]pyridin-2-ylmethylamine hydrochloride], the Ki is less than 10000 nM. In turn, `COc1cccc(OC)c1CN1Cc2ccccc2N=C1NCc1ccccc1` [Example 95, N-Benzyl-3-(2,6-dimethoxybenzyl)-3,4-dihydroquinazolin-2-amine hydrochloride] returned a Ki of less than 10000 nM. In the case of `COc1ccccc1CN1Cc2ccccc2N=C1NC1CCN(Cc2ccccc2)CC1` [Example 96, N-(1-Benzylpiperidin-4-yl)-3-(2-methoxybenzyl)-3,4-dihydroquinazolin-2-amine fumarate] it was less than 10000 nM; in that of `COc1ccccc1CN1Cc2ccccc2N=C1NCCc1ccccc1` [Example 97, [3-(2-Methoxybenzyl)-3,4-dihydroquinazolin-2-yl]phenethylamine hydrochloride], less than 10000 nM. In the case of `COc1ccccc1CN1Cc2ccccc2N=C1NCc1cccc2ccccc12` [Example 98, 3-(2-Methoxybenzyl)-N-(1-naphthylmethyl)-3,4-dihydroquinazolin-2-amine hydrochloride] it was less than 10000 nM. With `COc1ccccc1CN1Cc2ccccc2N=C1NCc1cccs1` [Example 100, 3-(2-Methoxybenzyl)-N-(2-thienylmethyl)-3,4-dihydroquinazolin-2-amine hydrochloride], the inhibitory constant (Ki) was less than 10000 nM.

In the case of `COc1ccc2c(c1)CN(Cc1ccccc1OC)C(N)=N2` [Example 101, 6-Methoxy-3-(2-methoxybenzyl)-3,4-dihydroquinazolin-2-amine], the Ki was less than 300 nM. In the case of `COc1ccccc1CN1Cc2cc(Cl)ccc2N=C1N` [Example 102, 6-Chloro-3-(2-methoxybenzyl)-3,4-dihydroquinazolin-2-amine] it was less than 300 nM.

Broadly, the Ki is a measure of affinity in units of concentration, obtained from inhibition or displacement.
